In patent US10829484B2, “Compounds and methods for kinase modulation, and indications therefor” (Plexxikon Inc., priority 2015, dated 2020):
Residue numbers refer to the chain shown, from its start.

Tests used:
BaF3-FLT3-ITD-D835V = target: T1, BaF3-FLT3-ITD-D835V (Homo sapiens, UniProt P36888, INS600HVDFREYEYD/D835V, cells depend on it); assay: CTB viability assay CS0048, BaF3-FLT3-ITD-D835V; format: cell-based, murine; conditions: BaF3-FLT3-ITD-D835V cells, CellTiter Blue viability, 72 hours; read-out: Cell Assay: CS0048: BaF3-FLT3-ITD-D835V CTB:IC50
T1 sequence (P36888 with tags, fused parts or gaps INS600HVDFREYEYD/D835V): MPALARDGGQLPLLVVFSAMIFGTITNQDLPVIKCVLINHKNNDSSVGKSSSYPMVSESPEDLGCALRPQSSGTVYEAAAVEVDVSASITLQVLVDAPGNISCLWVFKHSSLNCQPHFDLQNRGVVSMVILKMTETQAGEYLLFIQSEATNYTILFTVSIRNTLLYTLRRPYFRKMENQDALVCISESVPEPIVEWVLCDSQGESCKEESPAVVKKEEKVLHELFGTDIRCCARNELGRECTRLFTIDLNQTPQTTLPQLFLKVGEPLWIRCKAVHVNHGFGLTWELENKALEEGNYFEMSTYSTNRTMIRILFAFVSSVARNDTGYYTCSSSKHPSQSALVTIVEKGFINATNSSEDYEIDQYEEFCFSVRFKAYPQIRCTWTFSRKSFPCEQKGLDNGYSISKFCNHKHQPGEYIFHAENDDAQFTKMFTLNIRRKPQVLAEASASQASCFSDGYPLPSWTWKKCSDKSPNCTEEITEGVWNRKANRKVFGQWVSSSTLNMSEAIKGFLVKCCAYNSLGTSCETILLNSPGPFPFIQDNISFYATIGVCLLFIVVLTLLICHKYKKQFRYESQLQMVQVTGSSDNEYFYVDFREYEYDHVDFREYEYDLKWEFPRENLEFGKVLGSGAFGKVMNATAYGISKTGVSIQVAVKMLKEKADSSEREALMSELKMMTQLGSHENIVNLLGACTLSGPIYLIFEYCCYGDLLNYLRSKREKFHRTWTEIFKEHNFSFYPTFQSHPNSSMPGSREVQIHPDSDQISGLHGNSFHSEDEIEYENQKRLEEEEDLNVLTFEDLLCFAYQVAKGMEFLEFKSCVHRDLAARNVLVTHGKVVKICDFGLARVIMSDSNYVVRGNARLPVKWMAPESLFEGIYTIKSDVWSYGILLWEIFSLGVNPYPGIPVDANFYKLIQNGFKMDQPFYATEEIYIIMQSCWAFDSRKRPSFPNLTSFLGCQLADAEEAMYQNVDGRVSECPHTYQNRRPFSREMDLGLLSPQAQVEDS
Text: (§1) Gene constructs containing the human FLT3 sequences FLT3-ITD, FLT3-ITD-F691L, FLT3-ITD-D835V and FLT3-D835V were synthesized by reverse translation of the human protein sequences, with codons optimized for mammalian expression. Sequence of the internal tandem duplication (ITD) was based on the MV4-11 ITD sequence. Synthetic DNA constructs were cloned into the pMSCV puro retroviral vector (Clontech) and transfected into the EcoPack2-293 packaging cell line (Clontech) to generate retroviruses that contain the different FLT3 constructs. Viruses were transduced into the IL-3-dependent, murine […] cell line, Ba/F3, and selected for puromycin resistance and IL-3 independence. All cell lines were cloned by limiting dilution and clones were used for all subsequent cell assays. Overexpression of the FLT3 mutants in the Ba/F3 cells results in constitutive phosphorylation of the exogenous FLT3 protein, which is required for IL-3 independence.
(§2) Cell lines were serum starved overnight in media containing 0.5% FBS, plated at 15,000 cells/well in 96-well white-walled tissue culture plates, and 3-fold serial dilutions of test compounds of Formula I were added for 72 hours at 37° C. CellTiter Blue (CTB, Promega) was added and incubated for an additional 3 hours at 37° C. Fluorescence was read at 560 nm excitation, 590 nm emission. Wells with CTB+media only were used for background subtraction, and the fluorescence of compound-treated cells was normalized to the fluorescence of DMSO-treated cells. IC50s were determined using Igor Pro software. All compounds are assayed in duplicate cell plates.

BaF3-FLT3-ITD-F691L = target: T2, BaF3-FLT3-ITD-F691L (Homo sapiens, UniProt P36888, INS600HVDFREYEYD/F691L, cells depend on it); assay: CTB viability assay CS0047, BaF3-FLT3-ITD-F691L; format: cell-based, murine; conditions: BaF3-FLT3-ITD-F691L cells, CellTiter Blue viability, 72 hours; read-out: Cell Assay: CS0047:BaF3-FLT3-ITD-F691L CTB:IC50
T2 sequence (P36888 with tags, fused parts or gaps INS600HVDFREYEYD/F691L): T1 sequence (P36888 with tags, fused parts or gaps INS600HVDFREYEYD/D835V) with F701L, V845D
Text: as §1, §2

| Structure (SMILES) | GI50 (BaF3-FLT3-ITD-D835V) | GI50 (BaF3-FLT3-ITD-F691L) |
| --- | --- | --- |
| COc1nn(C2CC2)cc1Nc1ncc(-c2ccc(CC(=O)Nc3cc(C4(C(F)(F)F)CC4)on3)c(F)c2)c(C)n1 [P-126, 2-[4-[2-[(1-cyclopropyl-3-methoxypyrazol-4-yl)amino]-4-methyl-pyrimidin-5-yl]-2-fluorophenyl]-N-[5-[1-(trifluoromethyl)cyclopropyl]isoxazol-3-yl]acetamide] | 10 to 50 nM | 10 to 50 nM |
| Cn1cncc1Nc1ncc(-c2ccc(CC(=O)Nc3cc(C4(C(F)(F)F)CC4)on3)c(F)c2)cn1 [P-132, 2-[2-fluoro-4-[2-[(3-methylimidazol-4-yl)amino]pyrimidin-5-yl]phenyl]-N-[5-[1-(trifluoromethyl)cyclopropyl]isoxazol-3-yl]acetamide] | 10 to 50 nM | 10 to 50 nM |
| CC(C)c1nn(C)cc1Nc1ncc(-c2ccc(CC(=O)Nc3cc(C4(C(F)(F)F)CC4)on3)c(F)c2)cn1 [P-168, 2-[2-fluoro-4-[2-[(3-isopropyl-1-methyl-pyrazol-4-yl)amino]pyrimidin-5-yl]phenyl]-N-[5-[1-(trifluoromethyl)cyclopropyl]isoxazol-3-yl]acetamide] | 10 to 50 nM | 10 to 50 nM |
| Cc1nn(C2CC2)cc1Nc1ncc(-c2ccc(CC(=O)Nc3cc(C4(C(F)(F)F)CC4)on3)c(F)c2)c(C)n1 [P-130, 2-[4-[2-[(1-cyclopropyl-3-methylpyrazol-4-yl)amino]-4-methyl-pyrimidin-5-yl]-2-fluorophenyl]-N-[5-[1-(trifluoromethyl)cyclopropyl]isoxazol-3-yl]acetamide] | 10 to 50 nM | 10 to 50 nM |
| C=CC(=O)Nc1nn(C)cc1Nc1ncc(-c2ccc(CC(=O)Nc3cc(C4(C(F)(F)F)CC4)on3)c(F)c2)cn1 [P-125, N-[4-[[5-[3-fluoro-4-[2-oxo-2-[[5-[1-(trifluoromethyl)cyclopropyl]isoxazol-3-yl]amino]ethyl]phenyl]pyrimidin-2-yl]amino]-1-methyl-pyrazol-3-yl] prop-2-enamide] | 50 to 100 nM | 10 to 50 nM |
| Cc1nc(Nc2cn(C)cn2)ncc1-c1ccc(CC(=O)Nc2cc(C3(C(F)(F)F)CC3)on2)c(F)c1 [P-119, 2-[2-fluoro-4-[4-methyl-2-[(1-methylimidazol-4-yl)amino]pyrimidin-5-yl]phenyl]-N-[5-[1-(trifluoromethyl)cyclopropyl]isoxazol-3-yl]acetamide] | 50 to 100 nM | 10 to 50 nM |
| CCc1nn(C2CCS(=O)(=O)C2)cc1Nc1ncc(-c2ccc(CC(=O)Nc3cc(C4(C(F)(F)F)CC4)on3)c(F)c2)cn1 (stereo not shown) [P-012, 2-[4-[2-[[1-(1,1-dioxothiolan-3-yl)-3-ethylpyrazol-4-yl]amino]pyrimidin-5-yl]-2-fluorophenyl]-N-[5-[1-(trifluoromethyl)cyclopropyl]isoxazol-3-yl]acetamide] | 10 to 50 nM | 10 to 50 nM |
| O=C(Cc1ccc(-c2cnc(Nc3cnn(CCO)c3C3CC3)nc2)cc1F)Nc1cc(C2(C(F)(F)F)CC2)on1 [P-210, 2-[4-[2-[[5-cyclopropyl-1-(2-hydroxyethyl)pyrazol-4-yl]amino]pyrimidin-5-yl]-2-fluorophenyl]-N-[5-[1-(trifluoromethyl)cyclopropyl]isoxazol-3-yl]acetamide] | 10 to 50 nM | 10 to 50 nM |
| Cc1c(Nc2ncc(-c3ccc(CC(=O)Nc4cc(C5(C(F)(F)F)CC5)on4)c(F)c3)cn2)ncn1C [P-075, 2-[4-[2-[(l,5-dimethylimidazol-4-yl)amino]pyrimidin-5-yl]-2-fluorophenyl]-N-[5-[1-(trifluoromethyl)cyclopropyl]isoxazol-3-yl]acetamide] | 10 to 50 nM | 10 to 50 nM |
| COc1nc(Nc2cn(C)nc2C)ncc1-c1ccc(CC(=O)Nc2cc(C3(C(F)(F)F)CC3)on2)c(F)c1 [P-117, 2-[4-[2-[(l,3-dimethylpyrazol-4-yl)amino]-4-methoxy-pyrimidin-5-yl]-2-fluorophenyl]-N-[5-[1-(trifluoromethyl)cyclopropyl]isoxazol-3-yl]acetamide] | – | 10 to 50 nM |
